The record followed here is PMC11952966 (2025).

Holding throughout (experiment): ITC
(ITC needs no label: the signal is the heat of the interaction.)

For experiment [1], the system named is OM7 (DNA, aptamer) GGGACGACATCGTAGGGGCACACGCTTAACGGGCTGATGTCGTCCC
In experiment [2] the test system is NC423 (DNA, aptamer) CTTACGACTTGTTCTGAGGGTCAACGGTGGTGTAGTTAGTCGTAAG
Experiment [3] deals with NC1947 (DNA, aptamer) CTTACGACACAGGGCGTGGAGTGGCTGGGCTTCAAGGGGTCGTAAG
For experiment [4], the system named is NCB (DNA, aptamer) CTTACGACACAGGGCGTGGAGGAGCTGGGCTATTAGGGGTCGTAAG
The test system of experiment [5] is FXd (DNA, aptamer) GGGACGACGGTGTGGGGGTAGGGGGTGTGGGAAGCGGCGTCGTCCC
Particulars: 23 °C; selection buffer (Supplementary Table S1); one-site model.

In the case of `COc1ccc2c3c1O[C@H]1C(=O)CC[C@@]4(O)[C@@H](C2)N(C)CC[C@]314`, in experiment [1], the KD (usually the equilibrium constant for the complex coming apart) amounted to 1400 nM.

`COC(=O)[C@H]1[C@@H](OC(=O)c2ccccc2)C[C@@H]2CC[C@H]1N2C`: the dissociation constant KD in experiment [2] came to 22 nM; in experiment [3], 123 nM; in experiment [4], 1000 nM.

In turn, `Cc1c(Nc2ncccc2C(=O)O)cccc1C(F)(F)F` gave a dissociation constant KD in experiment [5] of 27400 nM.
